Laboratory results published in PubChem BioAssay (NCI).
Values joined by “and” are separate entries in the source; they are usually repeats but may differ in a detail not shown here. Equal entries are not always repeated.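 The compound was tested at five concentrations on cells cultured in 96-well plates, with a 48-hour exposure period. At the GI50, growth is halved. TGI marks complete inhibition of growth.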

Legend:
Assay in all cases: DTP human tumour cell line panel, 48 h
CAKI-1 renal = test system: CAKI-1 renal
HS 578T breast = test system: HS 578T breast
COLO 205 colon = test system: COLO 205 colon
NCI-H23 lung = test system: NCI-H23 lung
TK-10 renal = test system: TK-10 renal
MDA-N = test system: MDA-N
EKVX NSCLC = test system: EKVX NSCLC
SNB-75 CNS = test system: SNB-75 CNS
SW-620 colon = test system: SW-620 colon
MDA-MB-231 breast = test system: MDA-MB-231 breast

| SMILES | TGI (CAKI-1 renal) | TGI (HS 578T breast) | TGI (COLO 205 colon) | TGI (NCI-H23 lung) | TGI (TK-10 renal) | TGI (MDA-N) | TGI (EKVX NSCLC) | TGI (SNB-75 CNS) | TGI (SW-620 colon) | TGI (MDA-MB-231 breast) | GI50 (CAKI-1 renal) | GI50 (NCI-H23 lung) | GI50 (MDA-N) [µM] | GI50 (EKVX NSCLC) | GI50 (MDA-MB-231 breast) |
| --- | --- | --- | --- | --- | --- | --- | --- | --- | --- | --- | --- | --- | --- | --- | --- |
| O=C1c2ccccc2C(=O)N1n1c(Cc2ccccc2)n[nH]c1=O | > 100 µM | > 100 µM | > 100 µM | > 100 µM | > 100 µM | > 100 µM | > 100 µM | > 100 µM | > 100 µM | > 100 µM |  |  |  |  |  |
| C1CC2=C(C1)[Se]C(=C1Sc3nsnc3S1)[Se]2 | > 100 µM | > 100 µM | > 100 µM | > 100 µM | > 100 µM | 62 µM | > 100 µM | > 100 µM | > 100 µM | > 100 µM |  |  |  |  |  |
| C=CCNC(=S)Nc1sc2c(c1C(=O)OCC)CC(C)CC2 (stereo unspecified) | > 100 µM | > 100 µM | 35.6 µM | > 100 µM | 63.7 µM | > 100 µM | 65.9 µM | 64.7 µM | > 100 µM | 57 µM |  |  |  |  |  |
| c1ccc(CNC2CC(NCc3ccccn3)CC(NCc3ccccn3)C2)nc1 (stereo unspecified) | 28 µM and 25 µM and 17.2 µM | 53.3 µM and 25 µM and 85.5 µM | 4.02 µM and 4.61 µM and 3.21 µM | 7.38 µM and 23.4 µM and 3.89 µM | 17.8 µM and 10.8 µM | 12.5 µM and 11.3 µM and 4.78 µM | 14.7 µM and 25 µM and 16.6 µM | 9.59 µM and 16 µM | 41.7 µM and 25 µM and 32.9 µM | 5.21 µM and 12.5 µM and 4.56 µM | 4.6 µM and 16.3 µM and 4.35 µM | 2.7 µM and 6.69 µM and 1.99 µM | 2.22 | 3.87 µM and 7.93 µM and 3.88 µM | 2.13 µM and 5.66 µM and 2.08 µM |
| CN1C/C(=C\c2cccs2)C2=NC(=S)NC(c3cccs3)C2C1 (stereo unspecified) | > 100 µM | > 100 µM | > 100 µM | > 100 µM | > 100 µM | > 100 µM | > 100 µM |  | > 100 µM | > 100 µM |  |  |  |  |  |
| CC1(C)O[C@H]2Cn3c(c(C#N)c4ccccc43)[C@H]2O1 | > 100 µM | > 100 µM | > 100 µM | > 100 µM | > 100 µM | > 100 µM | > 100 µM | > 100 µM |  | > 100 µM |  |  |  |  |  |
| COc1cc(/C=C2/SC(c3ccccc3)N(c3ccc(NC(C)=O)cc3)C2=O)cc(OC)c1OC (stereo unspecified) | > 100 µM | > 100 µM | > 100 µM | > 100 µM | > 100 µM | > 100 µM | > 100 µM |  | > 100 µM | > 100 µM |  |  |  |  |  |
| COc1c2cc([N+](=O)[O-])cc1CNC(=O)CN1CCOCCOCCN(CCOCCOCC1)CC(=O)NC2 | > 100 µM | > 100 µM | > 100 µM | > 100 µM | > 100 µM | > 100 µM | > 100 µM | > 100 µM | > 100 µM | > 100 µM |  |  |  |  |  |
| Clc1ccc(-c2ccc(-c3nnc(CCc4nnc(-c5ccc(-c6ccc(Cl)cc6)o5)o4)o3)o2)cc1 | > 100 µM | 86 µM | > 100 µM | > 100 µM | > 86 µM | > 100 µM | > 100 µM |  | > 100 µM | > 100 µM |  |  |  |  |  |
| Cc1ccc(S(=O)(=O)c2scc(-c3ccccc3)c2C)cc1 | > 100 µM | > 100 µM | > 100 µM | > 100 µM | > 100 µM | > 100 µM | > 100 µM | > 100 µM | > 100 µM | > 100 µM |  |  |  |  |  |
